{"source": "patent US7294189B2", "about": "“Wax emulsion preservative compositions and method of manufacture” (Hexion Specialty Chemicals, Inc., priority 2002, dated 2007)", "key": {"mold cultures": {"tested_on": "mold cultures", "assay": "ASTM D3273 four week mold resistance test of gypsum product made with wax emulsion containing thiabendazole", "conditions": "0.2% thiabendazole post-added to wax emulsion; closed chamber with potting soil and mold cultures, about 90° F., relative humidity 95% to 98%; first weeks of the test", "experimental": "A wax emulsion formulation was prepared with the following components: G Wax (a paraffin wax) 33%, Montan wax 3.3%, alkyl phenol 0.5%, Disal 0.5%, potassium hydroxide 0.75%, ammonium hepta molybdonate 0.01%, starch 0.09%, polyfon H (lignosulfonic acid, sodium salt) 0.5%, water 61.35%. To this wax emulsion was post-added 0.2% thiabendazole, commercially available from Supreme Chemical of Cumming, Ga. under the trade designation MC-2. The wax emulsion was used to prepare a gypsum product. The resulting gypsum product was tested according to ASTM D3273. During this four week test, a sample of the subject material, such as a gypsum board, is placed in a closed chamber along with potting soil and mold cultures at a constant temperature of about 90° F. (32.2° C.) and relative humidity of 95% to 98%. The condition of the test sample is monitored weekly to determine the extent, if any, of mold growth."}, "biological growth": {"tested_on": "biological growth", "assay": "Biological growth on particle board coupons (urea-formaldehyde binder) made with test emulsions, placed in various environments", "conditions": "emulsions with 1% or 2% thiabendazole by weight of the wax; emulsion 0.4% solids by weight of furnish; soaked and non-soaked coupons; constant humidity, rooftop, warehouse, laboratory; after six weeks (control coupons showed growth after first week)", "experimental": "In other tests, test emulsions as described above was used to prepare sample particle board coupons comprising a urea-formaldehyde binder. Some test emulsions contained 1% thiabendazole, others 2%, by weight of the wax in the emulsions. The emulsion was added to the furnish from which the coupons were formed in an amount of 0.4% solids, by weight of the furnish. Some of the coupons were soaked in water for twenty-four hours before testing. For the test, various soaked and non-soaked coupons were placed in various environments including constant humidity conditions (72° F. (22.2° C.), 72% relative humidity (RH)), outdoor rooftop environmental conditions (exposed to air but shielded from direct impingement by precipitation); and indoors in an uncontrolled warehouse and in a laboratory environment, beside a water bath. Control coupons prepared and treated similarly were also place in these environments."}}, "note": "Entries after “also recorded” stand apart in the source; their conditions may differ."}
{"smiles": "c1ccc2[nH]c(-c3cscn3)nc2c1", "note": "[thiabendazole, 2-(4′-thiazolyl) benzimidazole]", "values": [{"measurement": "biological (mold) growth on gypsum product", "setting": "mold cultures", "value": "effective in inhibiting the growth of biological agents on gypsum board; also recorded: no biological growth"}, {"measurement": "visible biological growth on particle board coupons", "setting": "biological growth", "value": "none of the sample coupons made with thiabendazole had any visible growth"}]}
